What was measured:
[1] = Odor unpleasantness of samples exposed to malodorant solution, evaluated by a panel of expert graders; conditions: % relative unpleasantness vs. reference (malodorant solution = 100); 10 ml of 0.1% aqueous ammonia; 16 mg total odor control material; five expert graders, 4 replicates, 25° C.
Procedure: For proving the synergistic effect on odor reduction several test samples are prepared by exposing them to a 0.1% aqueous solution of ammonia, which serves as a test malodorous substance. The first data point in table 2 serves as a benchmark as it represents the degree of unpleasantness of the ammonia solution without added odor control material. Data points 2-3 in table 2 are illustrating the malodor-reducing activity of two exemplary odor control materials alone, specifically alpha-amylcinnamaldehyde as exemplary aldehyde and menthyl acetate as an exemplary odor control material acting on the nose receptors. The last data point 4 in table 2 is illustrating the activity of the odor control system of the present invention. For comparability, two individual odor control materials were mixed at half their amount compared to data points 2-3. Data point 4 was obtained by testing a mixture of alpha-Amylcinnamaldehyde and menthyl acetate. […] Thus, synergistic odor control activity has been proven. Further, odor unpleasantness and pleasantness of these samples was evaluated by a panel of expert graders. In particular, five different expert graders evaluated 4 replicates for each sample. Odor unpleasantness was evaluated by using a scale from −10 to +0, where—10 indicates the max odor unpleasantness, 0 indicates no odor. […]

[2] = Thermogravimetric analysis (TGA), weight loss over time at 40° C.; assay type: physicochemical; conditions: samples kept at 40° C. for 180 minutes, mixture = menthyl acetate (10%) + silica gel (ex Grace, coded 123)
Procedure: The stabilization effect has been proven by running a Thermogravimetric analysis (TGA) on samples of narrow silica gel treated with 10 weight-% of menthyl acetate. Specifically, the method is based on evaluation of weight loss over time at specific temperature (40° C.). The samples were kept at 40° C. for 180 minutes. In order to have a basis for comparison the TGA analysis was performed on a sample of pure menthyl acetate and a sample of pure silica gel as references together with a sample of menthyl acetate (10%)+silica gel (ex Grace, coded 123).

| SMILES | Odor unpleasantness [1] [%] | Weight Loss [2] [%] |
| --- | --- | --- |
| CCCCCC(C=O)=Cc1ccccc1 [Alpha-Amylcinnamaldehyde, alpha-amylcinnamaldehyde] | 64 | – |
| CC(=O)OC1CC(C)CCC1C(C)C (stereo not drawn) [Menthyl acetate, menthyl acetate] | 46 | ~100 |
